Reference: article PMC7419507, “In vitro Cas9-assisted editing of modular polyketide synthase genes to produce desired natural product derivatives” (Nature Communications, 2020)

Assay: Stability of the compound during isolation
Assay type: physicochemical
Details: isolation from culture
Text: Authors' possible answers (A) to the comments (C) raised by Reviewer #2.
This manuscript by Kudo et al. describes the combined application of in vitro CRIPS-Cas9 and Gibson assembly technology to edit type 1 modular PKSs. Authors […]
module deletion/insertion, reductive domains, stereochemistry of beta-hydroxyl group, and double modification (ER and KR) using rapamycin PKS as a model system. Although in vitro CIRPR/Cas9 system for refactoring of biosynthetic gene clusters in Streptomyces has been reported previously (mBio 6(6):e01714-15), this manuscript may be the first report to use CIRPR/Cas9 technology to edit the large modular PKSs.
We thank Reviewer #2 for the positive evaluation of our technology. Since the engineering […]
(C-1) Although the method used in this study seems promising to edit PKS efficiently, authors should present the complete structural data (e.g. 1D and 2D NMR) of all […]
(A-1) We have added NMR data for compounds 10, 11 , 12, 13, 15 and 16, whose yields were high enough allow their analysis by NMR. In addition, we confirmed the quantitative analysis of all compounds (Supplementary Table 3). […]
smaller m/z than that of 5 (Figs. A(d) and (e)). Multiple degradation products were detected (Fig. B) and those peaks were not detectable from crude extract before isolation.
We measured a NMR spectrum of the collected sample (ca 0.8 mg), however, the sample […]

Stability during isolation, in words | Compound
instability | CO[C@H]1C[C@@H]2CC[C@@H](C)[C@@](O)(O2)C(=O)C(=O)N2CCCC[C@H]2C(=O)O[C@H]([C@H](C)C[C@@H]2CC[C@@H](O)[C@H](OC)C2)CC(=O)[C@H](C)/C=C(\C)[C@@H](O)[C@@H](OC)C(=O)[C@H](C)CC/C=C/C=C/C=C/1C [Compound 5, 23-demethyl rapamycin]
so unstable that we could not isolate it | CO[C@@H]1C[C@H](C[C@@H](C)[C@@H]2CC(=O)[C@H](C)/C=C(\C)[C@@H](O)CC(=O)[C@H](C)/C=C(C)/C=C/C=C/C=C(\C)[C@H](O)C[C@@H]3CC[C@@H](C)[C@@](O)(O3)C(=O)C(=O)N3CCCC[C@H]3C(=O)O2)CC[C@H]1O [Compound 19, 27-demethoxy-16-O-demethyl-23,24-didehydro-rapamycin]
